According to patent publication US20260124184A1, “ONCE DAILY ALDOSTERONE SYNTHASE INHIBITOR (R)-(+)-5-(P-CYANOPHENYL)-5,6,7,8-TETRAHYDROIMIDAZO[L,5-A]PYRIDINE” (priority 2022, published 2026):
Where two headings read alike, the source gives them in different places.

System: patients with primary aldosteronism
Settings: for plasma potassium, mean / plasma potassium, median: 8 mg once daily, n=11
Method: A double-blind, randomized, Phase 2 trial was conducted between November 2019 and June 2022 at 11 centres in Italy, Switzerland and the Netherlands (NCT04007406). […] Patients requiring fixed-dose antihypertensive therapy continued treatment throughout the study; steroid therapies, β-adrenergic and renin-angiotensin-aldosterone system blockers were not permitted. At 14-day intervals, office blood pressures were recorded and blood samples were taken for measurement of steroid and peptide hormones and electrolytes at a central laboratory.

[1] = Day 70 (after placebo withdrawal)

(R)-(+)-5-(p-cyanophenyl)-5,6,7,8-tetrahydroimidazolium[1,5-a]pyridine dihydrogen phosphate [dexfadrostat phosphate]
plasma potassium, mean (Day 56): 4.10 nmol/L | plasma potassium, median (Day 56): 4.10 nmol/L | plasma potassium, mean [1]: 3.76 nmol/L | plasma potassium, median [1]: 3.80 nmol/L | plasma potassium upon drug withdrawal (Day 70, after 14-day placebo withdrawal): potassium values returned towards baseline levels | plasma potassium concentration, mean (baseline potassium <3.6 mmol/L, 4 mg QD, Day 1 (baseline)): 3.1 mmol/L | plasma potassium concentration, mean (baseline potassium <3.6 mmol/L, 4 mg QD, Day 14): 4.1 mmol/L | plasma potassium concentration, mean (baseline potassium <3.6 mmol/L, 4 mg QD, Day 28): 3.8 mmol/L | plasma potassium concentration, mean (baseline potassium <3.6 mmol/L, 4 mg QD, Day 42): 3.9 mmol/L | plasma potassium concentration, mean (baseline potassium <3.6 mmol/L, 4 mg QD, Day 56): 4.0 mmol/L | plasma potassium concentration, mean (baseline potassium <3.6 mmol/L, 4 mg QD, Day 70 (placebo withdrawal)): 3.3 mmol/L | plasma potassium concentration, mean (baseline potassium <3.6 mmol/L, 8 mg QD, Day 1 (baseline)): 3.3 mmol/L | plasma potassium concentration, mean (baseline potassium <3.6 mmol/L, 8 mg QD, Day 14): 4.2 mmol/L | plasma potassium concentration, mean (baseline potassium <3.6 mmol/L, 8 mg QD, Day 28): 3.9 mmol/L | plasma potassium concentration, mean (baseline potassium <3.6 mmol/L, 8 mg QD, Day 42): 4.0 mmol/L | plasma potassium concentration, mean (baseline potassium <3.6 mmol/L, 8 mg QD, Day 56): 4.0 mmol/L | plasma potassium concentration, mean (baseline potassium <3.6 mmol/L, 8 mg QD, Day 70 (placebo withdrawal)): 3.7 mmol/L | plasma potassium concentration, mean (baseline potassium <3.6 mmol/L, 12 mg QD, Day 1 (baseline)): 3.3 mmol/L | plasma potassium concentration, mean (baseline potassium <3.6 mmol/L, 12 mg QD, Day 14): 3.9 mmol/L | plasma potassium concentration, mean (baseline potassium <3.6 mmol/L, 12 mg QD, Day 28): 4.0 mmol/L | plasma potassium concentration, mean (baseline potassium <3.6 mmol/L, 12 mg QD, Day 42): 4.1 mmol/L | plasma potassium concentration, mean (baseline potassium <3.6 mmol/L, 12 mg QD, Day 56): 3.8 mmol/L | plasma potassium concentration, mean (baseline potassium <3.6 mmol/L, 12 mg QD, Day 70 (placebo withdrawal)): 3.7 mmol/L | plasma potassium concentration, mean (baseline potassium ≤3.0 mmol/L, all doses QD, Day 1 (baseline)): 2.9 mmol/L | plasma potassium concentration, mean (baseline potassium ≤3.0 mmol/L, all doses QD, Day 14): 3.9 mmol/L | plasma potassium concentration, mean (baseline potassium ≤3.0 mmol/L, all doses QD, Day 28): 3.9 mmol/L | plasma potassium concentration, mean (baseline potassium ≤3.0 mmol/L, all doses QD, Day 42): 4.0 mmol/L | plasma potassium concentration, mean (baseline potassium ≤3.0 mmol/L, all doses QD, Day 56): 3.9 mmol/L | plasma potassium concentration, mean (baseline potassium ≤3.0 mmol/L, all doses QD, Day 70 (placebo withdrawal)): 3.5 mmol/L | plasma potassium concentration, mean (baseline potassium ≥3.6 mmol/L, 4 mg QD, Day 1 (baseline)): 3.8 mmol/L | plasma potassium concentration, mean (baseline potassium ≥3.6 mmol/L, 4 mg QD, Day 14): 4.6 mmol/L | plasma potassium concentration, mean (baseline potassium ≥3.6 mmol/L, 4 mg QD, Day 28): 4.0 mmol/L | plasma potassium concentration, mean (baseline potassium ≥3.6 mmol/L, 4 mg QD, Day 42): 4.3 mmol/L | plasma potassium concentration, mean (baseline potassium ≥3.6 mmol/L, 4 mg QD, Day 56): 4.3 mmol/L | plasma potassium concentration, mean (baseline potassium ≥3.6 mmol/L, 4 mg QD, Day 70 (placebo withdrawal)): 4.0 mmol/L | plasma potassium concentration, mean (baseline potassium ≥3.6 mmol/L, 8 mg QD, Day 1 (baseline)): 3.8 mmol/L | plasma potassium concentration, mean (baseline potassium ≥3.6 mmol/L, 8 mg QD, Day 14): 4.3 mmol/L | plasma potassium concentration, mean (baseline potassium ≥3.6 mmol/L, 8 mg QD, Day 28): 4.1 mmol/L | plasma potassium concentration, mean (baseline potassium ≥3.6 mmol/L, 8 mg QD, Day 42): 3.9 mmol/L | plasma potassium concentration, mean (baseline potassium ≥3.6 mmol/L, 8 mg QD, Day 56): 4.1 mmol/L | plasma potassium concentration, mean (baseline potassium ≥3.6 mmol/L, 8 mg QD, Day 70 (placebo withdrawal)): 3.9 mmol/L | plasma potassium concentration, mean (baseline potassium ≥3.6 mmol/L, 12 mg QD, Day 1 (baseline)): 3.9 mmol/L | plasma potassium concentration, mean (baseline potassium ≥3.6 mmol/L, 12 mg QD, Day 14): 4.0 mmol/L | plasma potassium concentration, mean (baseline potassium ≥3.6 mmol/L, 12 mg QD, Day 28): 4.1 mmol/L | plasma potassium concentration, mean (baseline potassium ≥3.6 mmol/L, 12 mg QD, Day 42): 4.0 mmol/L | plasma potassium concentration, mean (baseline potassium ≥3.6 mmol/L, 12 mg QD, Day 56): 3.9 mmol/L | plasma potassium concentration, mean (baseline potassium ≥3.6 mmol/L, 12 mg QD, Day 70 (placebo withdrawal)): 3.7 mmol/L | plasma potassium concentration, mean (baseline ≤3.0 mmol/L despite potassium supplements, all doses QD, Day 1 (baseline)): 3.2 mmol/L | plasma potassium concentration, mean (baseline ≤3.0 mmol/L despite potassium supplements, all doses QD, Day 14): 4.0 mmol/L | plasma potassium concentration, mean (baseline ≤3.0 mmol/L despite potassium supplements, all doses QD, Day 28): 4.1 mmol/L | plasma potassium concentration, mean (baseline ≤3.0 mmol/L despite potassium supplements, all doses QD, Day 42): 4.2 mmol/L | plasma potassium concentration, mean (baseline ≤3.0 mmol/L despite potassium supplements, all doses QD, Day 56): 4.0 mmol/L | plasma potassium concentration, mean (baseline ≤3.0 mmol/L despite potassium supplements, all doses QD, Day 70 (placebo withdrawal)): 3.8 mmol/L | effect on plasma potassium concentration (each dose arm, sustained over active treatment period): rapid and significant (p<0.001) increase in plasma potassium concentrations | plasma potassium concentration, mean (in presence of potassium supplements, all doses QD, Day 1 (baseline)): 3.3 mmol/L | plasma potassium concentration, mean (in presence of potassium supplements, all doses QD, Day 14): 4.1 mmol/L | plasma potassium concentration, mean (in presence of potassium supplements, all doses QD, Day 28): 4.0 mmol/L | plasma potassium concentration, mean (in presence of potassium supplements, all doses QD, Day 42): 4.1 mmol/L | plasma potassium concentration, mean (in presence of potassium supplements, all doses QD, Day 56): 4.1 mmol/L | plasma potassium concentration, mean (in presence of potassium supplements, all doses QD, Day 70 (placebo withdrawal)): 3.8 mmol/L
